Measured values as given in patent US9821002B2, “Method for alleviating radiation injury with isorhamnetin-3-O-β-D-glucoside” (Sinotai Oncology Associate., Ltd., priority 2015, dated 2017).

Tests used:
BNL CL.2 cells = experiment: Mitochondrial membrane potential assay (JC-1) after X-ray irradiation; format: cell-based, mouse; settings: 5 μM, 2 h pretreatment, X-ray 15 Gy, 120 hours, mean ± SEM
Excerpt: (§1) Four groups of BNL CL.2 cells (i.e., a normal control group referred to as Normal Control Group 1-A, an X-ray control group referred to as X-Ray Control Group 1-A, and two experimental groups referred to as Experimental Groups 1-A to 2-A), and six groups of NMuMG cells (i.e., a normal control group referred to as Normal Control Group 1-B, an X-ray control group referred to as X-Ray Control Group 1-B, two isorhamnetin groups referred to as Isorhamnetin Groups 1 to 2, and two experimental groups referred to as Experimental Groups 1-B to 2-B), were prepared based on the procedure set forth in “Source and cultivation of cell lines” of “Experimental materials”. BNL CL.2 cells in each group were cultivated using 5 mL of a corresponding medium shown in Table 1 and a 6-cm Petri dish in an amount of 2×10^5 cells per dish. Likewise, NMuMG cells in each group were cultivated using 5 mL of a corresponding medium shown in Table 1 and a 6-cm Petri dish in an amount of 2.5×10^5 cells per dish. The cultivation was conducted in an incubator (37° C., 5% CO2) for 24 hours. […]
(§2) 1 mL of trypsin-EDTA was added so as to detach the cells from the bottom of the Petri dish. […] Mitochondrial membrane potential assay was conducted using BD Accuri™ C6 flow cytometry, and the percentage of mitochondrial membrane potential depolarization (%) was calculated using BD Accuri™ C6 software.

NMuMG cells = experiment: as above; format: cell-based, mouse; settings: 15 μM, 2 h pretreatment, X-ray 10 Gy, 48 hours, mean ± SEM
Excerpt: as §1, §2

**Q.** How did the “Percentage of mitochondrial membrane potential depolarization” value (BNL CL.2 cells) turn out when `COc1cc(-c2oc3cc(O)cc(O)c3c(=O)c2O[C@@H]2O[C@H](CO)[C@@H](O)[C@H](O)[C@H]2O)ccc1O` [isorhamnetin-3-O-β-D-glucoside] was run?
**A.** 16 ± 2.97 %

**Q.** What about the “Percentage of mitochondrial membrane potential depolarization” value (NMuMG cells) of the same compound?
**A.** 30.05 ± 1.07 %
